The results in this text go back to ChEMBL document CHEMBL3137381, “MMV Box Onchocerca lienalis screening set”.

Common to all, as to assay type: functional
The subject of assay [1] is Onchocerca lienalis. Put plainly: MMV: Percent motility assay at a compound concentration of 7.8e-7 M. Activity score legend: 3: Active, 2: Moderately active; 1: Inactive, 0: Toxic. As to conditions: at 0.78 µM.
The subject of assay [2] is Onchocerca lienalis. Put plainly: MMV: Percent motility assay at a compound concentration of 1.25e-5 M. Activity score legend: 3: Active, 2: Moderately active; 1: Inactive, 0: Toxic. The settings on record: at 12.5 µM.
Assay [3] relates to Onchocerca lienalis. As to the kind of experiment: MMV: Percent motility assay at a compound concentration of 1.9e-7 M. Activity score legend: 3: Active, 2: Moderately active; 1: Inactive, 0: Toxic. As to conditions: at 0.19 µM.
Assay [4] concerns Onchocerca lienalis. Put plainly: MMV: Percent motility assay at a compound concentration of 3.1e-6 M. Activity score legend: 3: Active, 2: Moderately active; 1: Inactive, 0: Toxic. The settings on record: at 3.1 µM.

Regarding `COc1ccc(Nc2nc(N/N=C/c3ccc(O)cc3)nc(Nc3ccc([N+](=O)[O-])cc3)n2)cc1`, the Motility in the assay with Onchocerca lienalis [1], with Onchocerca lienalis [2], in the assay with Onchocerca lienalis [3] and in the assay on Onchocerca lienalis [4] was 100% each time.
Take `Cn1c(C(=O)c2cccc3ccccc23)nc2ccccc21`: the Motility in the assay on Onchocerca lienalis [1], with Onchocerca lienalis [2], in the assay with Onchocerca lienalis [3] and with Onchocerca lienalis [4] was 100% in each case.
With `OCCNc1nc(Nc2ccc(Cl)c(Cl)c2)nc2ccccc12`, the Motility is 100% in the assay on Onchocerca lienalis [1], 20% in the assay with Onchocerca lienalis [2], 100% in the assay on Onchocerca lienalis [3] and 33.33% in the assay with Onchocerca lienalis [4].
On to `Nc1ccc(-c2nc3cc(Oc4ccc(Oc5ccc6[nH]c(-c7ccc(N)cc7)nc6c5)cc4)ccc3[nH]2)cc1`, for which the Motility in the assay on Onchocerca lienalis [1], in the assay with Onchocerca lienalis [2], with Onchocerca lienalis [3] and in the assay on Onchocerca lienalis [4] was 100% throughout.
For `CCc1ccc(CNCC(O)c2ccccc2)cc1.Cl` (configuration not stated), the Motility with Onchocerca lienalis [1], with Onchocerca lienalis [2], in the assay with Onchocerca lienalis [3] and in the assay on Onchocerca lienalis [4] was 100% in each case.
`Nc1ccn([C@@H]2O[C@H](CO)[C@@H](O)[C@H]2O)c(=O)n1` [CYTIDINE]: the Motility in the assay on Onchocerca lienalis [1], in the assay with Onchocerca lienalis [2], in the assay with Onchocerca lienalis [3] and in the assay with Onchocerca lienalis [4] was 100% throughout.
For the molecule `O=C(Nc1cccc(C2=NCCN2)c1)Nc1cccc(C2=NCCN2)c1` [IMIDOCARB], the Motility in the assay with Onchocerca lienalis [1], with Onchocerca lienalis [2], with Onchocerca lienalis [3] and in the assay with Onchocerca lienalis [4] was 100% in each case.
On to `CN(C)c1ccc(C(O)(c2ccc(N(C)C)cc2)c2ccc(N(C)C)cc2)cc1` [METHYLROSANILINE], for which the Motility is listed as 66.66% in the assay with Onchocerca lienalis [1], 100% with Onchocerca lienalis [2], 100% in the assay with Onchocerca lienalis [3] and 100% with Onchocerca lienalis [4].
